The source made the active and inactive calls.
What was measured:
[1] = HepG2 cell cytotoxicity, dose response, cytotoxicity control, plate reader, cherry-pick, antagonist series (AID 743416); type: functional, cell-based
[2] = A549 cell cytotoxicity, dose response, cytotoxicity control, plate reader, cherry-pick, antagonist series (AID 743412); type: functional, cell-based
[3] = P. falciparum Dd2 growth inhibitors, dose response, SYBR Green, cherry-picked samples (AID 1159567); type: functional, cell-based
[4] = HepG2 cell cytotoxicity, dose response, cytotoxicity control, plate reader, dry powder samples (AID 1159569); type: functional, cell-based;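 note: inhibitor potency with signal falling toward the positive control level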
[5] = MC4R antagonists, dose response, counter-screen for LGR2 antagonist project, cell-based, plate reader, cherry pick (AID 743444); type: functional;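 note: transfected HEK 293 cells stimulated with alpha-MSH peptide; potency of inhibitors of the alpha-MSH evoked signal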
Paired box protein Pax-8 = Paired box protein Pax-8 (Homo sapiens, UniProt Q06710); test: inhibitors of PAX8-driven TPO luciferase reporter, dose response, RMG-I cells, cherry-pick (AID 687027); type: functional, cell-based;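 note: luciferase reporter driven by Pax8 target thyroperoxidase promoter measured by SteadyGlo luminescence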
Paired box protein Pax-8, sequence (Q06710 whole entry): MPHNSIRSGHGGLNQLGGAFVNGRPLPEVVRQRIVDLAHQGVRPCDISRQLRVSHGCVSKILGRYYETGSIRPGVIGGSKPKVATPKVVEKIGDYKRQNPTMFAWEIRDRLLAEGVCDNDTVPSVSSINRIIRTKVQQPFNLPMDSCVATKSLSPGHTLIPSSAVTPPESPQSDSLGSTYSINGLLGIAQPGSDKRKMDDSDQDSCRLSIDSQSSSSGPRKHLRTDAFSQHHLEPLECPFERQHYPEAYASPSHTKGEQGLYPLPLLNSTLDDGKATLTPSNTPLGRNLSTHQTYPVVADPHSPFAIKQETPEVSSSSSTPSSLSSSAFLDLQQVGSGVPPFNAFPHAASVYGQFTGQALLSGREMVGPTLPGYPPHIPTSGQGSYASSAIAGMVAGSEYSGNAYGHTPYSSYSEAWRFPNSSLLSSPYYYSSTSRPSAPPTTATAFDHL

[6] = HEK293 cell cytotoxicity, dose response, cytotoxicity control, plate reader, cherry-picked samples (AID 743446); type: functional, cell-based
[7] = P. falciparum Dd2 growth inhibitors, dose response, SYBR Green, dry powder samples (AID 1159566); type: functional, cell-based;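 note: potency for growth inhibition with lower SYBR green DNA signal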
[8] = IOSE-T80 ovarian epithelial cell cytotoxicity, dose response, cytotoxicity control for PAX8 inhibitor project, plate reader, dry powder samples (AID 743045); type: functional, cell-based
[9] = IGROV1 ovarian cancer cell cytotoxicity, dose response, PAX8 inhibitor project, plate reader, dry powder samples (AID 743043); type: functional, cell-based; conditions: IGROV-1
[10] = P. falciparum ATP4 D1247Y mutant growth inhibitors, dose response, NITD609-resistant line, SYBR Green, dry powder (AID 1159571); type: functional, cell-based;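 note: parasites synchronized at ring stage by sorbitol before testing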
[11] = NIH:OVCAR-3 ovarian cancer cell cytotoxicity, dose response, PAX8 inhibitor project, plate reader, dry powder samples (AID 743044); type: functional, cell-based
[12] = LGR2 antagonists, dose response, cell-based, HEK293, CRE-luciferase reporter, cherry pick, set 2 (AID 743343); type: functional;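 note: transfected cells were stimulated with diluted bursicon conditioned medium after compound addition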
[13] = cytotoxicity in OVCAR8 ovarian cancer cells, dose response, PAX8 project, cell-based, plate reader, dry powder samples (AID 743197); type: functional; conditions: OVCAR-8
[14] = A2780 ovarian cancer cell cytotoxicity, dose response, cytotoxicity control, plate reader, dry powder samples (AID 743046); type: functional, cell-based
[15] = P. falciparum 3D7-ScDHODH growth inhibitors, dose response, SYBR Green, dry powder samples (AID 1159570); type: functional, cell-based;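 note: parasite growth measured after 72 hours of compound exposure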
[16] = target: Signal transducer and activator of transcription 1-alpha/beta (Homo sapiens, UniProt P42224); test: STAT1 signalling inhibitors, dose response, cell-based, NIH 3T3, luciferase reporter (AID 1396); type: functional
Signal transducer and activator of transcription 1-alpha/beta, sequence (P42224 whole entry, the tested form may be a part): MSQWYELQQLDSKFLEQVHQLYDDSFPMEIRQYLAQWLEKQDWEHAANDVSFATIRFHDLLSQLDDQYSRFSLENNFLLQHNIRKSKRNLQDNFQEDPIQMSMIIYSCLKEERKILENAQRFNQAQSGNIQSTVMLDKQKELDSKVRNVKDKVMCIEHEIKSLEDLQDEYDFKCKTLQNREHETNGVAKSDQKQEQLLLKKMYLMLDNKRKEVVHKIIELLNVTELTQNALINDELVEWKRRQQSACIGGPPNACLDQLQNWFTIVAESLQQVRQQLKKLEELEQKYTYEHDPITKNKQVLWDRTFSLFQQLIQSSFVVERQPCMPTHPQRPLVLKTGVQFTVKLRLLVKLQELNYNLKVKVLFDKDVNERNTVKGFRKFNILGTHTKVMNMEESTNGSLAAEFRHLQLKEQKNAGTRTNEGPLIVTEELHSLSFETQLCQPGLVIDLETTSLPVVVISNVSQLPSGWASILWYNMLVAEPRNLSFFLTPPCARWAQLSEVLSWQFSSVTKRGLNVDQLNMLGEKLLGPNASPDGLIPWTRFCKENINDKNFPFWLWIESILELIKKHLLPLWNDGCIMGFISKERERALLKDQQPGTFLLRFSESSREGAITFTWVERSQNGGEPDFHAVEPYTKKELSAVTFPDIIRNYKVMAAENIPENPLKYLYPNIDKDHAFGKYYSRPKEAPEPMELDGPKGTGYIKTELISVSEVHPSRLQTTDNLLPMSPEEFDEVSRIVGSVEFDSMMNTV

[17] = HIV Env cell-cell fusion inhibitors, dose response, HIV entry, plate reader, dry powder (AID 687023); type: functional, cell-based
[18] = inhibitors of clade B AD8 Env fusion, dose response, cell-based, cherry-pick (AID 652062); type: functional;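 note: luciferase signal from cell-cell fusion driven by HIV-1 clade B AD8 Env; potency is for inhibitors of fusion seen as a drop in luminescence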
[19] = ZM109 Env clade C HIV-1 fusion inhibitors, dose response, HeLa effector, CEM target cells, luciferase, cherry-pick (AID 652058); type: functional, cell-based
[20] = inhibitors of HIV Env-driven cell fusion, dose response, cherry-pick (AID 652057); type: functional, cell-based
[21] = target: T1, Oxysterols receptor LXR-beta (Homo sapiens, UniProt P55055); type: functional, cell-based;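 note: Cell-based luminescence dose-response assay of agonist activity at LXR, run as a confirmatory counterscreen to a daf-12 agonist screen; agonist potency from rising luciferase signal of a Gal4-LXR reporter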
T1 sequence (P55055 whole entry): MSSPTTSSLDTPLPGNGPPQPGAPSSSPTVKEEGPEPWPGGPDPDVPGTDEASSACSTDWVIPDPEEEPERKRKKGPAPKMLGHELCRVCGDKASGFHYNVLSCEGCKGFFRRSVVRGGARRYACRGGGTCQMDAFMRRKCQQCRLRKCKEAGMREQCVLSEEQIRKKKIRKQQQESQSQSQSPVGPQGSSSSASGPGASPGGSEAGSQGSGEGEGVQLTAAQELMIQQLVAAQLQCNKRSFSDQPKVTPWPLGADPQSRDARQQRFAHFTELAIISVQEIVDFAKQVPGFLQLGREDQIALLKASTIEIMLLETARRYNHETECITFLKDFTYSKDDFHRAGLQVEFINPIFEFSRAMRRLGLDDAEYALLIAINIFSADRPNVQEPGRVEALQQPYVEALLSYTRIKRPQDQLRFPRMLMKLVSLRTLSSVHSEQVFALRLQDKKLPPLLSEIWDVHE

Cytochrome P450 2D6 = Cytochrome P450 2D6 (Homo sapiens, UniProt P10635);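 note: CYP2D6 member of a cytochrome P450 panel assay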
Cytochrome P450 2D6, sequence (P10635 whole entry): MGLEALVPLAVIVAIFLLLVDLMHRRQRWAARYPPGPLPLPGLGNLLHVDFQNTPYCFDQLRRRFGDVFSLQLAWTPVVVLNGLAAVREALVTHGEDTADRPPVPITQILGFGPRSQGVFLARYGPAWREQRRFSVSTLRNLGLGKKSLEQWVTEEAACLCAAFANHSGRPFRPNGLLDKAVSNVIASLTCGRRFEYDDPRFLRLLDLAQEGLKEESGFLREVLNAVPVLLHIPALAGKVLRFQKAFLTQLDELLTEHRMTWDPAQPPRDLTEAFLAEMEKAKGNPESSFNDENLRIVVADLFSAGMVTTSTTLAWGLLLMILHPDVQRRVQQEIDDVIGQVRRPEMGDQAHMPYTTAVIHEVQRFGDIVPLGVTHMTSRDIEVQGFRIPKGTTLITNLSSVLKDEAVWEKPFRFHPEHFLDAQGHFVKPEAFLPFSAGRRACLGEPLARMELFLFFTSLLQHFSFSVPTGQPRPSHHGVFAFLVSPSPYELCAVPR

Cytochrome P450 3A4 = Cytochrome P450 3A4 (Homo sapiens, UniProt P08684);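 note: CYP3A4 tested as one member of a cytochrome P450 panel screen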
Cytochrome P450 3A4, sequence (P08684 whole entry): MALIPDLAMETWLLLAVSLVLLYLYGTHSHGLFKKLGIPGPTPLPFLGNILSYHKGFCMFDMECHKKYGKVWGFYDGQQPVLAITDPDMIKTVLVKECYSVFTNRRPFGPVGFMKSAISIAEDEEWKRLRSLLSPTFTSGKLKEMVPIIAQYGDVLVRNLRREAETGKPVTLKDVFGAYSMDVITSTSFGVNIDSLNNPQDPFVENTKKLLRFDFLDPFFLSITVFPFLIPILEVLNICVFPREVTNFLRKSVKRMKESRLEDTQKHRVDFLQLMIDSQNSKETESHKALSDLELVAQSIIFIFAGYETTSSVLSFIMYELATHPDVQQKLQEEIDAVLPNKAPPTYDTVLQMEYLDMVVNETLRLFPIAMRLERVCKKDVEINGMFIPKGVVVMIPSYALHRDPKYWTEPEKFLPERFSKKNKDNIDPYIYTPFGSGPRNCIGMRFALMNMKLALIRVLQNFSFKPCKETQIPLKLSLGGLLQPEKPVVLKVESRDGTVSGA

[22] = Luminescence-based cell-based high throughput dose response assay to identify activators of the DAF-12 from the parasite S. stercoralis (ssDAF-12).; type: functional
[23] = target: T1, Oxysterols receptor LXR-beta; test: LXR agonists, Gal4 luciferase reporter, dose response, counter-screen for ssDAF-12 agonist project, cell-based, luminescence, HEK293, S. stercoralis campaign (AID 720737); type: functional; conditions: read-out: IC50 (the source's name)
Transthyretin = Transthyretin (Homo sapiens, UniProt P02766); test: Luminescence-based cell-based high throughput dose response assay to identify activators of Transthyretin (TTR) transcription.; type: functional
[24] = target: T2, RNA-binding protein pos-1 (Caenorhabditis elegans, UniProt G5EF15); test: inhibitors of POS-1/mex-3 RNA binding, dose response, biochemical, fluorescence polarization (AID 1964);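 note: purified POS-1 fused to maltose binding protein made in E. coli; potency of compounds blocking POS-1 binding to fluorescent RNA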
T2 sequence (G5EF15 whole entry): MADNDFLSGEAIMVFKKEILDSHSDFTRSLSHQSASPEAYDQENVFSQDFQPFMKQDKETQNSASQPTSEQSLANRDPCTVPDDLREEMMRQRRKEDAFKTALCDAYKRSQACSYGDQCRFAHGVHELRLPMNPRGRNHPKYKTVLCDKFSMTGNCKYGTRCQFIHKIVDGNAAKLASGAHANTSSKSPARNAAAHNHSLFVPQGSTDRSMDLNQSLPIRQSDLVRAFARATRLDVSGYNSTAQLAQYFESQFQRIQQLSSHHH

[25] = Luminescence Cell-Based Dose Confirmation HTS to Identify Activators of 5'UTR Stem-Loop Driven Alpha-Synuclein mRNA Translation in H4 Neuroglioblastoma Cells. [Related pubchem assays: 1829 (Project Summary), 1814 (Primary HTS)]; type: functional
[26] = target: T3, Zinc finger protein mex-5 (Caenorhabditis elegans, UniProt Q9XUB2); test: MEX-5/TCR-2 RNA interaction inhibitors, dose response, biochemical, C. elegans, fluorescence polarization (AID 1960)
T3 sequence (Q9XUB2 whole entry): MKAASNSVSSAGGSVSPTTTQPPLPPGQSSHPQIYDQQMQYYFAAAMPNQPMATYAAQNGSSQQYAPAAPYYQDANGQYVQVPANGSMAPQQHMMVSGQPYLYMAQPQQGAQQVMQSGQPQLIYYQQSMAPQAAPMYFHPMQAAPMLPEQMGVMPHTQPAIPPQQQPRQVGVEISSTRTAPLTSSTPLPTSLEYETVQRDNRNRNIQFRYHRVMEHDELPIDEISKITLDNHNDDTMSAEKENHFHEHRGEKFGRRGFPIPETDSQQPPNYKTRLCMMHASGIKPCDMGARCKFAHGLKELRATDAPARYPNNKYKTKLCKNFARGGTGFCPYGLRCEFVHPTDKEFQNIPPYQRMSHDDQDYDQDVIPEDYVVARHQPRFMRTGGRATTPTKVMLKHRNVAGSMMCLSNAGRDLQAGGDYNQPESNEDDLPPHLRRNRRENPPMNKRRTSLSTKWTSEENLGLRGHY

[27] = Luminescence Cell-Based Dose Response HTS to Identify Activators of Luciferase Translation or Activity in H4 […] Cells. [Related pubchem assays: 1829 (Project Summary), 1814 (Primary HTS)]; type: functional
H4 = test: Luminescence Cell-Based Dose Response HTS to Identify Activators of 5'UTR Stem-Loop Driven Prion Protein mRNA Translation in H4 Neuroglioblastoma Cells. [Related pubchem assays: 1829 (Project Summary), 1814 (Primary HTS)]; type: functional; conditions: Homo sapiens
[28] = target: G-protein coupled receptor 183 (Homo sapiens, UniProt P32249); test: SAR confirmation of small molecule antagonists of the EBI2 receptor via a luminescent beta-arrestin assa.; type: functional
G-protein coupled receptor 183, sequence (P32249 whole entry): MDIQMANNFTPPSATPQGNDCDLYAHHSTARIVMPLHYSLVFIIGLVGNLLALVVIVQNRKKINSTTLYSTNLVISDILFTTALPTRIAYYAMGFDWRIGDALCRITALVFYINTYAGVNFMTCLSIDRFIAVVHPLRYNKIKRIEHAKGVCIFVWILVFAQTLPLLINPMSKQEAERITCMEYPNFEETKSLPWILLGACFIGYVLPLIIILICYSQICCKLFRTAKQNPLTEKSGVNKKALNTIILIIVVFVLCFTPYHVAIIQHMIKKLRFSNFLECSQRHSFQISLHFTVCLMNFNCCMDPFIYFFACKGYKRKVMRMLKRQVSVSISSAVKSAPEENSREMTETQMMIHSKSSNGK

N#Cc1cccc(-c2ccc([C@@H]3[C@@H]4CN(C(=O)C5CC5)C[C@H]3N4)cc2)c1
AC50 [1]: 5.88 µM (active)
AC50 [2]: 1.97 µM (active)
AC50 [3]: 0.489 µM (active)
AC50 [4]: 2.84 µM (active)
AC50 [5]: 2.49 µM (active)
AC50 (Paired box protein Pax-8): 1.25 µM (active)
AC50 [6]: 13.1 µM (active)
AC50 [7]: 0.267 µM (active)
AC50 [8]: 68.8 µM (active)
AC50 [9]: 7.63 µM (active)
AC50 [10]: 0.455 µM (active)
AC50 [11]: 12.2 µM (active)
AC50 [12]: 2.62 µM (active)
AC50 [13]: 4.43 µM (active)
AC50 [14]: 9.05 µM (active)
AC50 [15]: 0.405 µM (active)

O=C(c1ccco1)N1CCN(c2[nH]cnc3c4ccccc4nc2-3)CC1
IC50 [16]: 16.9 µM (not active)

Cc1noc(C)c1S(=O)(=O)N(C)C[C@@H]1Oc2ccc(NC(=O)Nc3ccccc3)cc2CC(=O)N([C@@H](C)CO)C[C@@H]1C
AC50 [17]: 14.2 µM (active)
AC50 [18]: 36.9 µM (active)
AC50 [19]: 15.2 µM (active)
AC50 [20]: 19.7 µM (active)

Cc1ccccc1-c1cc(-c2ccccc2O)on1
EC50 [21]: > 67.6 µM (inactive)
AC50 (Cytochrome P450 2D6): 22.4 µM (inconclusive)
AC50 (Cytochrome P450 3A4): 31.6 µM (inconclusive)
IC50 [22]: > 67.6 µM (inactive)
EC50 (cells): > 67.6 µM (inactive)
EC50 [23]: > 67.6 µM (inactive)

O=C/C(=C\Nc1ccccn1)c1nc2ccccc2o1
EC50 (Transthyretin): > 167 µM (inactive)
EC50 [24]: > 300 µM (not active)
EC50 [25]: > 120 µM (not active)
EC50 [26]: > 300 µM (not active)
EC50 [27]: 10.2 µM (active)
EC50 (H4): 32.7 µM (active)

O=C(/C=C/c1ccc(Br)cc1)N1CCN(Cc2ccc(Cl)cc2C(F)(F)F)CC1
IC50 [28]: 0.00523 µM (active)
